{
  "source": "patent US11389407B2",
  "about": "“Cochleates and methods of using the same to enhance tissue penetration of pharmacologically active agent” (priority 2015, dated 2022)",
  "system": "Candida albicans",
  "assay": "Minimum inhibitory concentration (MIC)",
  "format": "cell-based",
  "data": [
    {"smiles": "C[C@@H]1[C@H](O)[C@@H](C)/C=C/C=C/C=C/C=C/C=C/C=C/C=C/[C@H](O[C@@H]2O[C@H](C)[C@@H](O)[C@H](N)[C@@H]2O)C[C@@H]2O[C@](O)(C[C@@H](O)C[C@@H](O)[C@H](O)CC[C@@H](O)C[C@@H](O)CC(=O)O[C@H]1C)C[C@H](O)[C@H]2C(=O)O", "note": "[AmB, amphotericin B]", "values": [
      {"measurement": "minimum inhibitory concentration (MIC)", "result": 0.25, "unit": "µg/mL"}
    ]}
  ]
}
